SMILES	melting point [°C]
CCOC(=O)C(NC(=O)c1ccc(OC)c(OC)c1)c1ncc(CF)cc1Cl (centres unmarked)	40 to 43
O=C(NC(Cc1ccccc1)c1ncc(C(F)(F)F)cc1Cl)c1c(Cl)cccc1Cl (centres unmarked)	164 to 168
O=C(NCc1ncc(Cl)cc1Cl)c1c(Cl)cccc1Cl [Compound 59, N-[(3,5-dichloro-2-pyridyl)methyl]-2,6-dichlorobenzamide]	161 to 165
CN(Cc1ncc(C(F)(F)F)cc1Cl)C(=O)c1c(Cl)cccc1Cl [Compound 63, N-[(3-Chloro-5-trifluoromethyl-2-pyridyl)methyl]-N-methyl-2,6-dichlorobenzamide]	83 to 84
FC(F)(F)c1cnc(CNC(=S)c2ccccc2Cl)c(Cl)c1 [Compound 701, N-[(3-Chloro-5-trifluoromethyl-2-pyridyl)methyl]-2-chlorobenzenethioamide]	102 to 105
